Literature values as cited in US20030032674A1, “Use of unsaturated fatty acids to treat severe inflammatory diseases” (priority 2001, published 2003).

Tests used:
[1] = test system: natural killer cell activity; details: infusion; mice and humans; cited from earlier work
[2] = test system: platelet aggregation; details: infusion; cited from earlier work
[3] = infusion; cited from earlier work

## 1,2,3-trieicosapentaenoyl-glycerol [EPA-TG]
[1]
  natural killer cell activity: inhibit
[2]
  platelet aggregation: decrease
[3]
  urinary concentration of prostaglandin I3 and thromboxane A3: increase
